Results from publication PMC5630632, “Assessing inhibitors of mutant isocitrate dehydrogenase using a suite of pre-clinical discovery assays” (Scientific Reports, 2017).
Where two headings read alike, the source gives them in different places.

Tests used:
[1] = Human plasma protein binding (rapid equilibrium dialysis, Cyprotex); type: in vitro ADME; conditions: for fraction unbound at 4 h, 5 µM: human, plasma, human plasma
JJ012 (R132G) cells = assay: 2-HG production, monolayer (2D), mass spectrometry, JJ012; type: cell-based; conditions: Homo sapiens, mass spec; for Emax: read-out: 2D Cellular 2HG Production (Mass Spec) JJ012 (R132G) % EMax; for EC50: read-out: 2D Cellular 2HG Production (Mass Spec) JJ012 (R132G) EC50
Protocol: (§1) (Supplementary Table 2). Inhibition of the target was assessed by quantitative measurement of 2-HG levels in extracellular media of monolayer (or 2-dimentional, 2D) cultures following incubation (48 hrs) with inhibitors. […]
(§2) treated 96-well plates (Corning) at a density of 8000 cells/well/100 μL . Plates were sealed with gas permeable membranes (Research Products International Corp.) and incubated at 37°C, 5% CO2, 90% RH for 24 hr. Growth media was subsequently aspirated and replaced with 100 μL of a solution of growth media cont aining either vehicle DMSO or indicated mIDH1 inhibitor. Each compound was tested as an 8-point dilution series ranging from 5 μM to 2.3 nM. After 48 hr treatment, 75 μL of the exhausted media was collected and snap frozen on dry ice. Samples were analyzed by LC-MS for 2- HG concentrations using Rapidfire / Mass Spectrometry (Quintara) (4) . Remaining cells were assessed for viability by adding 100 μL of fresh media and 50 μL of CellTiter-Glo reagent (Promega) as per manufacturer instructions. Luminescence was read using a Vi ewLux High-throu ghpu t CCD imager (PerkinElmer) equipped with clear filters.

[2] = High-throughput PAMPA (GIT), pH 7.4; type: in vitro ADME; conditions: read-out: HT PAMPA Permeability
Excerpt: In Vitro Physicochemical and Drug Metabolism Studies:
High-Throughput PAMPA assay
The stirring double- sin k PAMPA method patented by pION Inc. (Billeri ca, MA) was employed to determine the permeability of compounds via PAMPA passive diffusion. The PAMPA lipid membrane consisted of an artificial membrane of a proprietary lipid mixture and dodecane (Pion Inc.), optimized to predict gastrointestinal tract (GIT) passive diffusion permeability, was immobilized on a plastic matrix of a 96 well “donor” filter plate placed above a 96 well “a cceptor” plate. A pH 7.4 solution was used in both donor and acceptor wells. The test articles, stocked in 10 mM DMSO solutions, were diluted to 0.05 mM in aqueous buffer (pH 7.4) , and the concentration of DMSO was 0.5% in the final solution. During the 30-min permeation period at room temperature, the test samples in the donor compartment were stirred using the Gutbox te chnology (Pion Inc.) to reduce the unstirred water layer. The test article concentrations in the donor and acceptor compartments were measured using an UV plate reader (Nano Quant, Infinite 200 […]
PRO, Tecan Inc., Männedorf, Switzerland). Permeability calculations were performed using Pion Inc. software and were expressed in units of 10-6 cm/s. […]

hERG channel = biological target: T1, hERG channel (Homo sapiens, UniProt Q12809); assay: hERG FluxOR-based thallium flux assay; type: cell-based; conditions: for EC50 / Emax: In Vitro Toxicity; for Emax: human, U2OS cells transduced with hERG-BacMam virus
T1 construct: host or cells: U2OS cells (ATCC)
T1 sequence (Q12809 whole entry): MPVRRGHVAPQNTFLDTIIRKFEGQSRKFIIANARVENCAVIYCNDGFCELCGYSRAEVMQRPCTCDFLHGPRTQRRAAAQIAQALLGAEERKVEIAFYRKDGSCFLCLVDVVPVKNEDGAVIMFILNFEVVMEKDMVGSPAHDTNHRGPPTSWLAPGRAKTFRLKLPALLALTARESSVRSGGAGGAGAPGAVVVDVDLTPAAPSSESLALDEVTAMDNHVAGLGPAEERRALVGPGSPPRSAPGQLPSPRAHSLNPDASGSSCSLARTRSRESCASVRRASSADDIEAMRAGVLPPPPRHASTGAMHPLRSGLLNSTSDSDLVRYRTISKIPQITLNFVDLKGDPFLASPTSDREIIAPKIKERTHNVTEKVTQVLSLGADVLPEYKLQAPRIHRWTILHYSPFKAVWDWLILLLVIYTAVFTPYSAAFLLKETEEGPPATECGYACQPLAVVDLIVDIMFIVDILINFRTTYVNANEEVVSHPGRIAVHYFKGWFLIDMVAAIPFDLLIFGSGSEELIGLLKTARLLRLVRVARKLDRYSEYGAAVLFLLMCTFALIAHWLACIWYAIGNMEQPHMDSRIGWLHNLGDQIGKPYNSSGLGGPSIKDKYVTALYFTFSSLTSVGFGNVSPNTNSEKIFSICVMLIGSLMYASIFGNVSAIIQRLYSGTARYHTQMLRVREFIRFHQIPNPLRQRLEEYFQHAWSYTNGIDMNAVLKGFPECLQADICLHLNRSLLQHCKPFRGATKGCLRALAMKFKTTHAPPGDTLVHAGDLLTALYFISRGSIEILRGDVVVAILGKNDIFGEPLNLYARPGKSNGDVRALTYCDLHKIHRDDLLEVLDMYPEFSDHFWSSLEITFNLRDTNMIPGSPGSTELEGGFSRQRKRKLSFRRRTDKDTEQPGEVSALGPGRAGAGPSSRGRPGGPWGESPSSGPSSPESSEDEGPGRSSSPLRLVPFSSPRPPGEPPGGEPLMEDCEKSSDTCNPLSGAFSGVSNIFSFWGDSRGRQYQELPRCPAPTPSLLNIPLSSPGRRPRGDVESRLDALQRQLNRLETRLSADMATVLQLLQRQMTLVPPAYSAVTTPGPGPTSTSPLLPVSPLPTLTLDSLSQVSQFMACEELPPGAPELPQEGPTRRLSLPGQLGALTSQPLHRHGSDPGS

[3] = tested on: JJ012 (R132G) 3D cellular spheroids; assay: 2-HG production, spheroids (3D), JJ012; type: cell-based; conditions: Homo sapiens; 3D spheroid, mass spec
Excerpt: To evaluate the effect of mIDH1 inhibitors in more relevant models of solid tumors, we adapted a 3-dimensional (3D) multicellular tumor spheroid assay to monitor spheroid formation and 2-HG production. Small molecules can have diminished efficacy in multicellular tumor spheroid models due to limited penetration and the heterogeneous nature of the 3D tumor spheroid[39],[40]. We began by testing the 6 aforementioned cell lines for their ability to form spheroids in ultra-low attachment plates at varying cell concentrations (1000–5000 cells/well). […] Overall, spheroids produced less extracellular 2-HG than cells cultured in monolayer (Fig. 7B).
Using these simple 3D models of solid tumors, we assessed the ability of inhibitors to reduce 2-HG production.
2-HG production: Cells grown as spheroids (3D)
(RBE) cells/well/150 μ L to form spheroids. Of note, we were not able to obtain spheroids using SNU1079 cells. Plates were sealed with gas permeable membranes, centrifuged at 40 rcf for 1 min, and incubated at 37°C, 5% CO2, 90% RH for 96 (HT108 0, U87 and JJ01 2) or 4 8 (RBE) h r. Cells were washed (by remo ving 10 0 μL of exhausted media and re placing it with 100 μL of growth media, twice) and treated with 50 μL of a solution of media containing the indicated compounds. Each compound was tested as an 8-point dilution series ranging from 5 μM to 2.3 nM.
After 96 hr of t reatment, 100 μL of the exhausted media was collected and snap frozen on dry ice. Samples were analyzed by LC -MS for 2- HG concentrations using Rapidfire /Mass Spectrometry (Quintara) ( 4) . Plates were first imaged on the Celigo Imaging Cytometer (Ne xcelom Bioscience) to quantify area of each spheroid. Cell viability was subsequently measured using the CellTiter-Glo assay with some modifications: 50 μL of a solution of CellTiter-Glo reagent containing a final concentration of 0.025 % Trypsin (Thermo Sci entific) was added to each well and plates were shaken at 500 rpm for 30 min before reading.

RBE (R132S) cells = assay: 2-HG production, monolayer (2D), mass spectrometry, RBE; type: cell-based; conditions: Homo sapiens, mass spec; for Emax: read-out: 2D Cellular 2HG Production (Mass Spec) RBE (R132S) % EMax; for EC50: read-out: 2D Cellular 2HG Production (Mass Spec) RBE (R132S) EC50
Protocol: as §1, §2

R172Q mIDH2 = biological target: T2, R172Q mIDH2 (Homo sapiens, UniProt P48735, R172Q); assay: mIDH2-R172Q enzyme assay (Reaction Biology), diaphorase/resazurin coupled; conditions: for Emax: read-out: IDH2 R172Q % EMax
T2 sequence (P48735 40-452 R172Q): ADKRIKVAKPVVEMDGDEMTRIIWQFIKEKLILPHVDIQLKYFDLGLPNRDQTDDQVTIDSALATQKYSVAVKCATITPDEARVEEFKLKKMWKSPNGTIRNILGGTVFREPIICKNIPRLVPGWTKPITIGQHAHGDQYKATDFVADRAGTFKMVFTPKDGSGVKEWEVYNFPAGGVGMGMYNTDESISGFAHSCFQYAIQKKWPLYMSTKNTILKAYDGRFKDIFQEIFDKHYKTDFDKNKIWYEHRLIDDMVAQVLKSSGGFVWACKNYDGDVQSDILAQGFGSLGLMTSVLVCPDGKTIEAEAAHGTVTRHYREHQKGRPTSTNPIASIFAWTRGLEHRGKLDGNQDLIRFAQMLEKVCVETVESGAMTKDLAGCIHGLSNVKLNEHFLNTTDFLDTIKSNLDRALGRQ

[4] = read-out: Human Plasma Protein Binding % Bound (converted)
[5] = read-out: Human Plasma Protein Binding % Unbound

Compound | fraction unbound at 4 h, 5 µM [1, 4] | fraction unbound at 4 h, 5 µM [1, 5] | Emax (JJ012 (R132G) cells) [%] | EC50 (JJ012 (R132G) cells) [nM] | Papp at 30 min, 0.05 mM [2] [×10⁻⁶ cm/s] | EC50 (hERG channel) [nM] | Emax (hERG channel) [%] | EC50 [3] [nM] | Emax [3] [%] | Emax (RBE (R132S) cells) [%] | EC50 (RBE (R132S) cells) [nM] | EC50 (R172Q mIDH2) [nM] | Emax (R172Q mIDH2) [%] | IC50 (hERG channel; U2OS cells, thallium flux) [nM] | IC50 (R172Q mIDH2) [nM] | unbound fraction in human plasma ([1]; 5 µM)
Cc1ccccc1C(C(=O)NC1CCCCC1)N(C(=O)Cn1cnc2ccccc21)c1cccc(F)c1 (stereo not drawn) [Agios 135] | 0.002 | 0.00167 | 74 | 681 | 787 | > 30000 | 8.1 | 236 | 95.6 | 106 | 810 | > 30000 | 1 | – | – | –
COc1c(C)cc(NC(=O)c2nn(Cc3ccc(F)cc3)c3c2CN(C(=O)c2ccc[nH]2)C[C@]3(C)C(N)=O)cc1C [GSK864] | 0.002 | 0.00206 | 82.4 | 519 | 365 | 4830 | 44.9 | 360 | 102 | 102 | 532 | 22 | 63 | 4700 | 183 | –
CC(=O)N1CCN(Cc2ccc([C@H](C)Nc3nccc(N4C(=O)OC[C@@H]4C(C)C)n3)cc2)CC1 [Norvartis 556] | 0.144 | 0.144 | 86.2 | 1060 | 390 | > 30000 | 12.1 | 678 | 104 | 103 | 912 | > 30000 | 6.6 | – | – | –
Cc1ccccc1[C@@H](C(=O)NC1CCCC1)N(C(=O)Cn1cnc2ccccc21)c1cccc(F)c1 [ML309] | 0.004 | 0.00355 | 68.7 | 711 | > 1700 | > 30000 | 8.2 | 218 | 92 | 101 | 970 | > 30000 | 10.1 | – | – | –
N#Cc1ccnc(N2C(=O)CC[C@H]2C(=O)N(c2cncc(F)c2)[C@H](C(=O)NC2CC(F)(F)C2)c2ccccc2Cl)c1 [AG-120, Ivosidenib] | 0.088 | 0.0876 | 67.9 | 16 | 537 | > 30000 | 10.1 | 24 | 79.8 | 89.1 | 220 | > 30000 | 11.1 | – | – | ~ 10 % unbound
Cc1ccccc1C(C(=O)NC1CCCCC1)N(C(=O)Cn1ccnc1C)c1cccc(F)c1 (stereo not drawn) [AGI-5198] | 0.033 | 0.0326 | 68.8 | 1640 | > 1400 | > 30000 | 3.4 | 428 | 113 | 69.1 | 2000 | > 30000 | 6 | – | – | –
